How the values were obtained:
[1] = system: swine exposed to 2.5 ATA hyperbaric oxygen for 5.5 hr; experiment: Experiment 2 deep exposure simulation: pulmonary capacity (pressure-volume loops); format: in vivo; details: 2.5 ATA O2 5.5 hr
Experimental: Experiment 2 is designed to evaluate the efficacy of tiotropium bromide pre-dive with respect to reducing decrements in pulmonary function due to PO2T following a 5.5 hour, 2.5 ATA hyperbaric oxygen exposure. This dive profile was selected because it caused the most significant pulmonary function deficits in humans with minimal risk of seizure due to CNS oxygen toxicity.
Pulmonary function testing: The swine had disposable prewired electrodes adhered to the dermis over the gluteal muscle and a train of four (TOF) stimulation was initiated to confirm proper placement and twitch using a DigiStim III Peripheral Nerve Stimulator (Neuro Technology Inc., Kerrville, Tex.). Atracurium besylate (50 mg, IV) (hospira, Lake Forest, Ill.) was injected into the ear vein catheter, and the swine was observed until cessation of muscle twitch with TOFs. The swine was then disconnected from the ventilator circuit, allowed to passively exhale, and connected to an O2 filled 3 L super syringe (Hamilton Company, Reno, Nev.) attached to a pressure gauge (OMEGA®, Norwalk, Conn.), and pneumotachometer (Harvard Apparatus, Holliston, Mass.). Oxygen was introduced in 100 ml increments every 3 seconds until a static pressure of 40 cm H2O was reached. The lungs were then deflated in 100 ml increments until a static pressure of −40 cm H2O. The swine was then reconnected to the ventilator and ventilated for 2 minutes before repeating the insufflation and exhalation maneuvers and measurements one more time. […] After the above measurements, swine received either nebulized Tiotropium (18 μg dissolved in saline) or an equal volume of 0.9% saline through the breathing circuit over the course of 15 minutes. The propofol infusion was then stopped, the animals were then monitored until a swallow reflex was observed then extubated. The swine were then transported to the hyperbaric chamber suite and allowed to recover until capable of standing.
Hyperbaric Exposures: Individual animals were then placed into a Plexiglas box (30 in.×42 in.×38 in., manufactured in-house) within a Multiple Large Animal Chamber (MLAC), which is a steel-hulled hyperbaric chamber (450-cubic ft. floodable volume and pressure tested to 1,230 feet of seawater [fsw] equivalent) (Bethlehem Steel Corp, Bethlehem Pa.). Pressure/depth was monitored by a CPG 2500 Digital Pressure Gauge (Mensor Corp., San Marcos, Tex.). Swine were dove in pairs with each treatment group represented. Swine box assignment was alternated with respect to treatment to avoid any effects associated with individual box environmental features. Animals were monitored via closed-circuit television to observe signs of distress related to middle ear barotrauma (e.g. head shaking, nystagmus) and seizure activity. Oxygen concentration was measured and recorded using a portable O2 analyzer (Teledyne Analytical Inst, City of Industry, Calif.). After positioning the animal inside the Plexiglas box, the MLAC was sealed and pressurized using air at the rate of I ATA/minute to a depth of 2.5 ATA. After 2.5 min at a bottom depth equivalent to 2.5 ATA, the breathing gas was switched to 100% O2 and maintained for 5.5 Hrs. After completing 5.5 Hrs on 100% O2, the inspired gas was switched back to air for 3 min. Then, the chamber was decompressed at 1 ATA/minute. Upon reaching surface the animal was transported to the surgical suite for post-dive ECG and pulmonary function measurements (identical to the pre-dive procedures). The animal was then euthanized via ear vein infusion of Euthasol (1.0-1.5 ml/10 lbs body weight) followed by a saline flush (5 cc).
Pulmonary function data analysis: Pressure and flow data from the pressure gauge and pneumotachometer respectively were collected by a Dell Laptop (Round Rock, Tex.) and an analog-digital converter card (PCI-6052E, National Instruments, Austin, Tex.) with 16 bit resolution and 200 Hz sampling rate running Labchart 8.0. […]

[2] = system: swine exposed to 2.5 ATA hyperbaric oxygen for 5.5 hr; experiment: Experiment 2: heart rate variability (SDNN); format: in vivo; details: 2.5 ATA O2 5.5 hr; mean+/−SEM; p=0.0331 vs saline
Experimental: The swine were prepared for ECG recording as described previously. Briefly, using an electric shaver, ECG areas were prepared bilaterally, posterior to the shoulder, lateral to the vertebrae, at approximately 4-7 cm above ribs 5-7 (bipolar derivation). Another area was prepared 2 cm lateral to the vertebrae on right side, between ribs 12-13. Newly exposed skin was rubbed with isopropyl alcohol. Disposable pre-wired (Grass Technologies/Astro-Med, Inc. Warwick, Mass.) or SF405 (KENDALL MEDI-TRACE™, Tyco Healthcare, Mansfield, Mass.) self-adhesive Ag/AgCl electrodes were placed on the proximal, symmetric sites and the ground electrode was placed at the distal site (between ribs 12-13). […]
Wideband AC amplifiers (Grass, Quincy, Mass.) were used for EEG and ECG recordings; a 0.5-35 Hz and 60 cycle notch filter setting was used. […] Heart rate variability (HRV) was calculated from pre-dive ECG epochs of at least 2 min durations using the Labchart ECG tool suite. […] Above the manually set trigger level the LabChart software looked for maximum values and measured the time interval between peaks (maximal amplitude of R-wave). […] The length of measured periods were: (1) 114.995 sec; peak-to-peak distance 0.750 t 0.0004 sec; 153 peaks; FFT 1.329 Hz=79.74 bpm; and (2) 326.52 sec; peak-to-peak distance 0.750±0.0003; 434 peaks; FFT 1.332 Hz=79.92 bpm. […]

C[N+]1(C)[C@@H]2C[C@@H](OC(=O)C(O)(c3cccs3)c3cccs3)C[C@H]1[C@@H]1O[C@@H]12 [Tiotropium, tiotropium bromide]
change in VC following hyperbaric exposure ([1]; 1st set of measurements): no change
decrease in IC following hyperbaric exposure ([1]; 1st set of measurements, n=7, p=0.2217, mean ± SEM): 57.14 ± 34.11 mL
increase in ERV following hyperbaric exposure ([1]; 1st set of measurements, n=7, p=0.6315, mean ± SEM): 57.14+62.65 ml
increase in VC following hyperbaric exposure ([1]; 2nd set of measurements, n=9, mean ± SEM): 22.22+52.69 ml
increase in ERV following hyperbaric exposure ([1]; 2nd set of measurements, n=9, p=0.4806, mean ± SEM): 44.44 ± 39.49 mL
decrease in IC following hyperbaric exposure ([1]; 2nd set of measurements, n=9, p=0.5300, mean ± SEM): 33.33 ± 31.94 mL
Inspiratory capacity, Saline vs Tiotropium groups ([1]; percent change from baseline, averaged, p=0.266): no significant differences
Vital Capacity, Saline vs Tiotropium groups ([1]; percent change from baseline, averaged, p=0.325): no significant differences
Expiratory Reserve Volume, Saline vs Tiotropium groups ([1]; percent change from baseline, averaged, p=0.900): no significant differences
Post-dive SDNN normalized to the pre-dive SDNN [2]: 103.5+/−15.87

Reference: patent US20190290623A1, “USE OF TIOTROPIUM BROMIDE TO PREVENT PULMONARY OXYGEN TOXICITY” (priority 2018, published 2019)
